Test results from paper PMC11999305, “Biochemical characterization of zebrafish Paqr5b” (Biochemistry and Biophysics Reports, 2025).
Read-outs that look alike come from different tables or passages of the source.

Key:
[1] = molecular target: T1, zPaqr5b (zebrafish Paqr5b) (Danio rerio, UniProt Q6DC77); test: radioligand saturation, filter binding, Scatchard
T1 construct: full-length CDS in pPICZalphaC; alpha-factor pre-pro signal N-terminal (major purified band 55 kDa keeps it, 45 kDa band Kex2-cut), C-terminal c-Myc and 6xHis kept; Pichia pastoris X-33; DDM-solubilized, purified by Ni-NTA and Sephacryl S-300
T1 sequence (Q6DC77 1-347): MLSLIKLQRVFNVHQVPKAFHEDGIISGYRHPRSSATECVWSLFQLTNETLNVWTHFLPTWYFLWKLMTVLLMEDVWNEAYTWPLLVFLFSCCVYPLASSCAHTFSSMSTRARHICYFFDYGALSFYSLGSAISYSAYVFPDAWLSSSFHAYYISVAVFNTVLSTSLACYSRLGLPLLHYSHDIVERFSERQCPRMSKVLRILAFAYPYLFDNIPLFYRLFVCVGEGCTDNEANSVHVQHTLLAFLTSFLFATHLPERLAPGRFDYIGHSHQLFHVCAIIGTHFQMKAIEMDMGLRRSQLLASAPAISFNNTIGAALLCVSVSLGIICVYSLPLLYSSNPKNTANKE

[2] = molecular target: T1, zPaqr5b (zebrafish Paqr5b); test: competition with [3H]-progesterone, filter binding
Text: competition with [3H]-progesterone, filter binding on zPaqr5b (zebrafish Paqr5b)

CC(=O)[C@H]1CC[C@H]2[C@@H]3CCC4=CC(=O)CC[C@]4(C)[C@H]3CC[C@]12C [P4, progesterone]
Kd [1]: 4.6 nM
IC50 ([2]; read-out: IC50): 5.32 nM

C[C@@H](O)[C@@]1(O)CC[C@H]2[C@@H]3CCC4=CC(=O)CC[C@]4(C)[C@H]3CC[C@@]21C [DHP, 17α,20β-dihydroxy-4-pregnen-3-one]
IC50 ([2]; read-out: IC50): 19.2 nM

CC(=O)[C@H]1CC[C@H]2[C@@H]3CC[C@H]4C[C@H](O)CC[C@]4(C)[C@H]3CC[C@]12C [ALLO, allopregnanolone]
IC50 [2]: 25.2 nM

CC(=O)[C@H]1CC[C@H]2[C@@H]3CC=C4C[C@@H](O)CC[C@]4(C)[C@H]3CC[C@]12C [Preg, pregnenolone]
IC50 ([2]; read-out: IC50): 38.3 nM
